Reference: PMC9446078 (Frontiers in Endocrinology, 2022)
Where a name gives a salt, the structure may show the parent alone. Read-outs that look alike come from different tables or passages of the source.

Assays:
[1] = Toxicokinetics in miniature swine; type: in vivo, Hanford miniature swine; settings: for Cmax: read-out: Cmax; for Tmax: read-out: Tmax
Experimental: A total of 40 Hanford miniature swine (20 male and 20 female) divided into four treatment groups were used for this study. A 12-week topical application of Galnobax 20% was carried out in the miniature swine wound healing model with twice-daily dosing. Six wounds (10 cm^2 each) of partial thickness were created on the dorsal region of all animals. Four wounds of each animal received twice-daily topical doses of either the vehicle or Galnobax gel, and the remaining two sites served as untreated comparative control wounds. Each group has four male and female miniature swine for the assessments and one each for the recovery period as given in Table 1 . Safety parameters in terms of ECG, clinical pathology, wound site evaluation, and toxicokinetics were performed during the study.

HFF-1 cells = experiment: MTT cytotoxicity in HFF-1; type: cell-based, human; settings: HFF-1, all tested concentrations (0.01 to 1000 μM); <30% = non-cytotoxic
Experimental: (§1) 1. HaCaT, HFF-1 and Ea.hy926 cells were counted and plated in 96 well plates at the density corresponding to 5 X 10^3 cells/well/180 μl of cell growth medium.
(§2) 2. The above cells were then incubated overnight under growth conditions of 37°C, 95 % Humidity, 5 % CO2.so as to allow the cell recovery and exponential growth.
(§3) 3. Following overnight incubation, the above cells were serum starved in DMEM (containing 25 mM glucose) supplemented with […] for 24 h.
(§4) 5. The Ea.hy926 cells were then incubated for 24 h and HaCaT and HFF-1 cells were incubated for 48 h in CO2 incubator at 37 °C, 5 % CO2 and 95 % humidity.
(§5) 6. Following incubation, the plates were taken out and 20 μl of 5 mg/ml of MTT 3-(4,5-dimethythiazol-2-yl)-2,5-diphenyl tetrazolium bromide solution was added to all the wells followed by additional incubation for 3 h at 37 °C. The supernatant was aspirated and 150 μl of DMSO was added to each well to dissolve formazan crystals. The absorbance of each well was then read at 540 nm using Synergy HT micro plate reader.
(§6) 7. The percentage cytotoxicity at each tested concentration was calculated using the following formula:
(§7) % Cytotoxicity = (1-X/R)*100

[2] = MTT cytotoxicity in HFF-1; type: cell-based, human; settings: human, HFF-1 cells, HFF-1, 48 h, read-out: % Cytotoxicity w.r.t. untreated cells
Experimental: as §1, §2, §3, §4, §5, §6, §7

red blood cells = experiment: Inhibition of sorbitol formation in erythrocytes; type: cell-based, human; settings: at IC50 concentration; compared with glucose-induced sorbitol levels (30 mM glucose, 3 h)
Experimental: The method in brief is discussed below. Five milliliters of blood sample was obtained from a healthy volunteer on overnight fasting in heparinized tubes. Red blood cells were separated by centrifugation and washed three times with isotonic saline at 4°C. The washed RBC were suspended in Kreb’s ringer bicarbonate buffer, pH 7.4 (preequilibrated with 5% CO2), and incubated at 37°C in the presence of 5% CO2 for 3 h under normal (3.0 mM) and high glucose (30 mM) conditions. […] At the end of the incubation period, RBC was homogenized in nine volumes of 0.8 M perchloric acid. The homogenate was centrifuged at 5,000 × g at 4°C for 10 min, and the pH of the supernatant was adjusted to 3.5 with 0.5 M potassium carbonate. The sorbitol content of the supernatant was measured by fluorometric method as described previously ([14]) using a spectrofluorometer (Jasco-FP-6500).

[3] = both sexes, Hanford, pig, blood, topical or ocular, 400 mg, Day 1, Group 2 swine, topical 400 mg Galnobax Gel, mean
[4] = both sexes, Hanford, pig, blood, topical or ocular, 400 mg, Week 12, Group 2 swine, topical 400 mg Galnobax Gel BID, mean

SMILES: COC(=O)CCc1ccc(OCC(O)CNC(C)C)cc1 (stereo not shown) [Esmolol hydrochloride]
- concentration at 8 hr ([1]; both sexes, Hanford, pig (miniature swine), blood, after first topical dose of Galnobax Gel 400 mg, below the quantitation limit, read-out: blood concentration by the second daily dose (8 hr)): < 5 ng/mL
- AUC(0-t) [1, 3]: 18.7 ng·h/mL
- Cmax [1, 3]: 30.3 ng/mL
- Tmax [1, 3]: 18 min
- AUC(0-t) [1, 4]: 17.5 ng·h/mL
- AUC from 0 to 8 h ([1]; both sexes, Hanford, pig, blood, topical or ocular, 400 mg, Week 12, Group 2 swine, topical 400 mg Galnobax Gel BID, mean, read-out: AUC0-8): 35.4 ng·h/mL
- Cmax [1, 4]: 140 ng/mL
- Tmax [1, 4]: 22.8 min
- accumulation after 12 weeks of twice-daily topical application ([1]; miniature swine, topical Galnobax): no apparent accumulation
- cytotoxicity (HFF-1 cells): non-cytotoxic
- cytotoxicity at 48 h, 0.01 µM ([2]; 0.01 μM): -21.6%
- cytotoxicity at 48 h, 0.1 µM ([2]; 0.1 μM): -10.7%
- cytotoxicity at 48 h, 1 µM ([2]; 1 μM): -8.29%
- cytotoxicity at 48 h, 10 µM ([2]; 10 μM): -17.1%
- cytotoxicity at 48 h, 50 µM ([2]; 50 μM): -21.8%
- cytotoxicity at 48 h, 100 µM ([2]; 100 μM): -21.9%
- cytotoxicity at 48 h, 500 µM ([2]; 500 μM): 14%
- cytotoxicity at 48 h, 1000 µM ([2]; 1000 μM): 16.6%
- inhibition of sorbitol formation in red blood cells (red blood cells): 59%
